According to patent publication US4820695A, “C-20-dihydro-deoxy-(cyclic amino)-derivatives of macrolide antibiotics” (priority 1987, dated 1989):
Converted amounts (≈) assume the structure as drawn. Read-outs that look alike come from different tables or passages of the source.

Assays:
[1] = system: Staphylococcus epidermidis 222; assay: MIC, standard agar-dilution assay (Table IX); assay type: cell-based; settings: read-out: MIC
Staphyloccus aureus X1.1 = assay: MIC, standard agar-dilution assay (Table IX); assay type: cell-based, Staphylococcus aureus; settings: Staphylococcus aureus, read-out: MIC
Escherichia coli EC14 = assay: MIC, standard agar-dilution assay (Table IX); assay type: cell-based; settings: read-out: MIC
[2] = system: Streptococcus pyogenes C203; assay: ED50 in mice experimentally infected with S. pyogenes C203 (Table XI); assay type: in vivo; settings: Streptococcus pyogenes, doses given 1 and 4 hours postinfection, read-out: ED50
How it was run: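 Protective ED50 (mg/kg × 2) was determined as the dose sparing half the animals. Test compound was given twice, at 1 and 4 hours after experimental S. pyogenes C203 infection of mice.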

[3] = system: Streptococcus Group D X66; assay: MIC, standard agar-dilution assay (Table IX); assay type: cell-based; settings: read-out: MIC
[4] = system: Haemophilus influenzae C.L.; assay: MIC, standard agar-dilution assay (Table IX); assay type: cell-based; settings: Ampicillin-sensitive strain, read-out: MIC
[5] = system: Staphylococcus aureus S13E; assay: MIC, standard agar-dilution assay (Table IX); assay type: cell-based; settings: Staphylococcus aureus, S13E
Klebsiella X26 = assay: MIC, standard agar-dilution assay (Table IX); assay type: cell-based; settings: read-out: MIC
[6] = system: Haemophilus influenzae 76; assay: MIC, standard agar-dilution assay (Table IX); assay type: cell-based; settings: Haemophilus influenzae 76, Ampicillin-resistant strain, read-out: MIC
Escherichia coli TEM = assay: MIC, standard agar-dilution assay (Table IX); assay type: cell-based; settings: read-out: MIC
Escherichia coli N10 = assay: MIC, standard agar-dilution assay (Table IX); assay type: cell-based; settings: read-out: MIC
[7] = Titratable groups in 66% aqueous DMF (Tables XIV-XVI); assay type: physicochemical
Excerpt: ^c Run in 66% aqueous DMF
^d Run in 66% aqueous DMF

[8] = system: Staphylococcus epidermidis EPI1; assay: MIC, standard agar-dilution assay (Table IX); assay type: cell-based; settings: Staphylococcus epidermidis EPI1; agar-dilution; read-out: MIC
[9] = system: Streptococcus pneumoniae Park I; assay: MIC, standard agar-dilution assay (Table IX); assay type: cell-based; settings: Streptococcus pneumoniae Park I; agar-dilution; read-out: MIC
[10] = system: Pasteurella multocida 60A; assay: MIC, broth-dilution microtiter test (Table X); assay type: cell-based; settings: Avian isolate, read-out: MIC
Excerpt: (§1) The MIC's in Table X were obtained using conventional broth-dilution microtiter tests.

Mycoplasma synoviae 40A = assay: MIC, broth-dilution microtiter test (Table X); assay type: cell-based; settings: Mycoplasmopsis synoviae, read-out: MIC
Excerpt: as §1

[11] = system: Mycoplasma gallisepticum 29C; assay: MIC, broth-dilution microtiter test (Table X); assay type: cell-based; settings: Mycoplasmoides gallisepticum, read-out: MIC
Excerpt: as §1

[12] = system: Pasteurella hemolytica 22C; assay: MIC, broth-dilution microtiter test (Table X); assay type: cell-based; settings: read-out: MIC
Excerpt: as §1

Mycoplasma hyorhinis 29E = assay: MIC, broth-dilution microtiter test (Table X); assay type: cell-based; settings: read-out: MIC
Excerpt: as §1

Staphylococcus aureus = assay: MIC, broth-dilution microtiter test (Table X); assay type: cell-based; settings: read-out: MIC
Excerpt: as §1

[13] = system: Pasteurella multocida 17E; assay: MIC, broth-dilution microtiter test (Table X); assay type: cell-based; settings: Bovine isolate, read-out: MIC
Excerpt: as §1

Streptococcus sp. 19F = assay: MIC, broth-dilution microtiter test (Table X); assay type: cell-based; settings: read-out: MIC
Excerpt: as §1

[14] = system: Mycoplasma hyopneumoniae S5972; assay: MIC, broth-dilution microtiter test (Table X); assay type: cell-based; settings: Mesomycoplasma hyopneumoniae, read-out: MIC
Excerpt: as §1

Group D strain 9960 = assay: MIC, standard agar-dilution assay (Table IX); assay type: cell-based, Streptococcus Group D; settings: tested using predecessor Group D strain 9960
[15] = system: Streptococcus pyogenes C203; assay: MIC, standard agar-dilution assay (Table IX); assay type: cell-based; settings: read-out: MIC
[16] = system: Staphylococcus aureus X400; assay: MIC, standard agar-dilution assay (Table IX); assay type: cell-based; settings: Staphylococcus aureus X400, Methicillin-resistant strain, read-out: MIC
[17] = system: Staphylococcus aureus V41; assay: MIC, standard agar-dilution assay (Table IX); assay type: cell-based; settings: Staphylococcus aureus V41, Penicillin-resistant strain, read-out: MIC
Pasteurella multocida [18] = assay: Pasteurella infection in one-day-old chicks, subcutaneous administration (Table XII); assay type: in vivo; settings: Administered subcutaneously, 30 mg/kg × 2, 1 and 4 hours post-challenge
How it was run: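 Treatment was 30 mg/kg s.c., given twice (1 and 4 h after infection). The infection itself was induced in day-old chicks by s.c. injection of 0.1 ml of avian Pasteurella multocida culture (20-h tryptose broth, diluted 10^-4).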

Pasteurella multocida [19] = assay: Pasteurella infection in one-day-old chicks, medicated drinking water (Table XIII); assay type: in vivo; settings: Administered in the available drinking water at 2 g/gal
How it was run: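 Oral dosing was by medicated drinking water (2 g/gal), offered from 4–20 h pre-infection and through a 3-day observation period. The chicks, one day old, were infected s.c. with 0.1 ml of a 10^-4-diluted, 20-h tryptose broth culture of avian Pasteurella multocida.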

[20] = system: Streptococcus Group D 2041; assay: MIC, standard agar-dilution assay (Table IX); assay type: cell-based; settings: GROUPD2041, read-out: MIC
[21] = system: Staphylococcus aureus 19C; assay: MIC, broth-dilution microtiter test (Table X); assay type: cell-based
Excerpt: as §1

[22] = Titratable groups (first value)

Compound | MIC [1] [µg/mL] | MIC (Staphyloccus aureus X1.1) [µg/mL] | MIC (Escherichia coli EC14) [µg/mL] | ED50 ([2]; C203, Oral) [mg/kg] | ED50 ([2]; C203, sc, Subcutaneous) [mg/kg] | MIC [3] [µg/mL] | MIC [4] [µg/mL] | MIC [5] [µg/mL] | MIC (Klebsiella X26) [µg/mL] | MIC [6] [µg/mL] | MIC (Escherichia coli TEM) [µg/mL] | MIC (Escherichia coli N10) [µg/mL] | MIC [8] [µg/mL] | MIC [10] [µg/mL] | MIC (Mycoplasma synoviae 40A) [µg/mL] | MIC [11] [µg/mL] | MIC [12] [µg/mL] | MIC (Mycoplasma hyorhinis 29E) [µg/mL] | MIC [13] [µg/mL] | MIC (Streptococcus sp. 19F) [µg/mL] | other results
CCC1OC(=O)CC(O)C(C)C(OC2OC(C)C(O)C(N(C)C)C2O)C(CCN2CCCCCCC2)CC(C)C(=O)C=CC(C)=CC1COC1OC(C)C(O)C(OC)C1OC (stereo not shown) [Compound D6] | 0.25 (≈ 0.288 µM) | 0.5 (≈ 0.575 µM) | 64 (≈ 73.6 µM) | 14 | 0.7 | 4 (≈ 4.6 µM) | 16 (≈ 18.4 µM) | 0.5 (≈ 0.575 µM) | 16 (≈ 18.4 µM) | 16 (≈ 18.4 µM) | 16 (≈ 18.4 µM) | 64 (≈ 73.6 µM) | 5 (≈ 5.75 µM) | 6.25 (≈ 7.19 µM) | 0.78 (≈ 0.897 µM) | 1.56 (≈ 1.79 µM) | 1.56 (≈ 1.79 µM) | 50 (≈ 57.5 µM) | 3.12 (≈ 3.59 µM) | 0.78 (≈ 0.897 µM) | Titratable groups [7]: 7.3; Titratable groups (first value) [7]: 5.4; pKa ([7]; Titratable groups): 9.4; pKa [7, 22]: 7.9; pKa ([7]; Titratable groups (third printed value)): 9.2; MIC [9]: 0.5 µg/mL (≈ 0.575 µM); MIC (Staphylococcus aureus): 0.78 µg/mL (≈ 0.897 µM); MIC [14]: 1.56 µg/mL (≈ 1.79 µM); MIC (Group D strain 9960): 8 µg/mL (≈ 9.2 µM); MIC [15]: 0.5 µg/mL (≈ 0.575 µM); MIC [16]: 0.5 µg/mL (≈ 0.575 µM); MIC [17]: 0.5 µg/mL (≈ 0.575 µM)
CCC1OC(=O)CC(O)C(C)C(OC2OC(C)C(O)C(N(C)C)C2O)C(CCN2CCC(c3ccccc3)CC2)CC(C)C(=O)C=CC(C)=CC1COC1OC(C)C(O)C(OC)C1OC (stereo not shown) [Compound D4, 20-DH-DO-20-(4-Phenylpiperidin-1-yl)desmycosin] | 0.25 (≈ 0.273 µM) | 0.5 (≈ 0.545 µM) | 64 (≈ 69.8 µM) | 19 | 6 | 1 (≈ 1.09 µM) | 8 (≈ 8.72 µM) | 0.5 (≈ 0.545 µM) | 32 (≈ 34.9 µM) | 8 (≈ 8.72 µM) | 32 (≈ 34.9 µM) | 64 (≈ 69.8 µM) | 0.5 (≈ 0.545 µM) | 6.25 (≈ 6.81 µM) | < 0.05 | 0.39 (≈ 0.425 µM) | 6.25 (≈ 6.81 µM) | 50 (≈ 54.5 µM) | 6.25 (≈ 6.81 µM) | 0.09 (≈ 0.0981 µM) | Number of Deaths/Number Treated (Pasteurella multocida [18]): 9/10; MIC [9]: 0.25 µg/mL (≈ 0.273 µM); MIC (Staphylococcus aureus): 0.39 µg/mL (≈ 0.425 µM); MIC [14]: 0.78 µg/mL (≈ 0.85 µM); MIC (Group D strain 9960): 2 µg/mL (≈ 2.18 µM); MIC [15]: 0.25 µg/mL (≈ 0.273 µM); Number of Deaths/Number Treated (Pasteurella multocida [19]): 6/10; MIC [16]: 0.5 µg/mL (≈ 0.545 µM); MIC [17]: 0.5 µg/mL (≈ 0.545 µM)
CCC1OC(=O)CC(O)C(C)C(OC2OC(C)C(O)C(N(C)C)C2O)C(CCN2CCC3CCCCC3C2)CC(C)C(=O)C=CC(C)=CC1COC1OC(C)C(O)C(OC)C1OC (stereo not shown) [Compound D29, 20-DH-DO-20-(decahydroisoquinolin-2-yl)desmycosin] | 0.125 (≈ 0.14 µM) | 0.5 (≈ 0.559 µM) | 64 (≈ 71.5 µM) | 10.3 | 1.56 | 2 (≈ 2.23 µM) | 4 (≈ 4.47 µM) | 0.5 (≈ 0.559 µM) | 32 (≈ 35.7 µM) | 4 (≈ 4.47 µM) | 16 (≈ 17.9 µM) | 64 (≈ 71.5 µM) | 0.5 (≈ 0.559 µM) | 6.25 (≈ 6.98 µM) | < 0.048 | 0.195 (≈ 0.218 µM) | 6.25 (≈ 6.98 µM) | 6.25 (≈ 6.98 µM) | 3.12 (≈ 3.49 µM) | 1.56 (≈ 1.74 µM) | MIC [20]: 8 µg/mL (≈ 8.94 µM); MIC [9]: 0.5 µg/mL (≈ 0.559 µM); MIC [21]: 1.56 µg/mL (≈ 1.74 µM); MIC [14]: 0.195 µg/mL (≈ 0.218 µM); MIC [15]: 0.5 µg/mL (≈ 0.559 µM); MIC [16]: 0.5 µg/mL (≈ 0.559 µM); MIC [17]: 0.5 µg/mL (≈ 0.559 µM)
CCC1OC(=O)CC(O)C(C)C(OC2OC(C)C(O)C(N(C)C)C2O)C(CCN2CCCCCCC2)CC(C)C(=O)C=CC(C)=CC1COC1OC(C)C(O)C(O)C1OC (stereo not shown) [Compound L5, 20-DH-DO-20-(octahydroazocin-1-yl)lactenocin] | 0.5 (≈ 0.585 µM) | 1 (≈ 1.17 µM) | > 128 | 100 | 1.8 | 16 (≈ 18.7 µM) | 32 (≈ 37.4 µM) | 1 (≈ 1.17 µM) | 16 (≈ 18.7 µM) | 6 (≈ 7.02 µM) | 16 (≈ 18.7 µM) | > 128 | 1 (≈ 1.17 µM) | 12.5 (≈ 14.6 µM) | 3.12 (≈ 3.65 µM) | 6.25 (≈ 7.31 µM) | 12.5 (≈ 14.6 µM) | 50 (≈ 58.5 µM) | 6.25 (≈ 7.31 µM) | 0.78 (≈ 0.912 µM) | Number of Deaths/Number Treated (Pasteurella multocida [18]): 0/10; pKa ([7]; Titratable groups): 9.3; pKa [7, 22]: 7.8; MIC [9]: 0.5 µg/mL (≈ 0.585 µM); MIC (Staphylococcus aureus): 1.56 µg/mL (≈ 1.82 µM); MIC (Group D strain 9960): 16 µg/mL (≈ 18.7 µM); MIC [15]: 0.5 µg/mL (≈ 0.585 µM); MIC [16]: 2 µg/mL (≈ 2.34 µM); MIC [17]: 1 µg/mL (≈ 1.17 µM)
CCC1OC(=O)CC(O)C(C)C(OC2OC(C)C(O)C(N(C)C)C2O)C(CCN2CC3CCC(C3)C2)CC(C)C(=O)C=CC(C)=CC1COC1OC(C)C(O)C(OC)C1OC (stereo not shown) [Compound D46] |  |  |  |  |  |  |  |  |  |  |  |  |  | 12.5 (≈ 14.4 µM) | 1.56 (≈ 1.8 µM) | 0.195 (≈ 0.225 µM) | 6.25 (≈ 7.21 µM) | 25 (≈ 28.8 µM) | 6.25 (≈ 7.21 µM) | 1.56 (≈ 1.8 µM) | MIC [21]: 3.12 µg/mL (≈ 3.6 µM); MIC [14]: 3.12 µg/mL (≈ 3.6 µM); Number of Deaths/Number Treated (Pasteurella multocida [19]): 3/10
